# Measurements taken from patent publication US8877707B2, “Inhibitors of HCV NS5A” (Presidio Pharmaceuticals, Inc., priority 2010, dated 2014).
# pEC50: −log10 of the molar value. Where two headings read alike, the source gives them in different places.
# Tested on: HCV genotype 1b replicon in Huh 7 cells
# Test: HCV replicon assay (1b_Huh-Luc/Neo-ET cell line, luciferase readout)
# Assay type: cell-based
# Conditions: Hepatitis C virus, read-out: Inhibition of HCV genotype 1b
# Method in brief: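 Huh 7 cells carrying a bicistronic genotype 1b luciferase replicon were treated with compound in triplicate the day after plating and incubated 72 h. Luciferase activity expressed as % of untreated control; EC50 from a four-parameter logistic fit, repeated several times.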
# [1] = Table 1, genotype 1b replicon, Huh 7 cells, 72 h, luciferase
# [2] = Table 2, genotype 1b replicon, Huh 7 cells, 72 h, luciferase
SMILES,pEC50 [1],other results
CNC(=O)N[C@@H](C(=O)N1CCC[C@H]1c1ncc(-c2ccc3nc(-c4ccc(-c5cnc([C@@H]6CCCN6C(=O)[C@@H](NC(=O)OC)C(C)C)[nH]5)cc4)oc3c2)[nH]1)c1ccccc1 [compound 251],> 9.00,
C=CC[C@H](NC(=O)OC)C(=O)N1CCC[C@H]1c1ncc(-c2ccc3nc(-c4ccc(-c5cnc([C@@H]6CCCN6C(=O)[C@@H](NC(=O)OC)C6CCOCC6)[nH]5)cc4F)ccc3c2)[nH]1 [compound 160],> 9.00,
COC(=O)N[C@@H](C(=O)N1CCC[C@H]1c1nc(-c2ccc3[nH]c(-c4ccc(-c5cnc([C@@H]6CCCN6C(=O)[C@H](NC(=O)OC)c6ccccc6)[nH]5)cc4)cc(=O)c3c2)c[nH]1)c1ccccc1 [compound 77],6.00 to 8.00,
COC(=O)N[C@H](C(=O)N1CCC[C@H]1c1ncc(-c2ccc(-c3ccc4cc(-c5cnc([C@@H]6CCCN6C(=O)[C@@H](NC(=O)OC)C(C)C)[nH]5)ccc4c3)c(C(F)(F)F)c2)[nH]1)C(C)C [compound 310],,pEC50 [2]: > 9.00
COC(=O)N[C@@H](C(=O)N1CCC[C@H]1c1nc(-c2ccc3nc(-c4ccc(-c5cnc([C@@H]6CCCN6C(=O)[C@H](NC(=O)OC)c6ccccc6)[nH]5)nc4)ccc3c2)c[nH]1)c1ccccc1 [compound 54],> 9.00,
COC(=O)N[C@H](C(=O)N1CCC[C@H]1c1nc(-c2cnc3cc(-c4ccc(-c5cnc([C@@H]6CCCN6C(=O)[C@@H](NC(=O)OC)C6CCOCC6)[nH]5)cc4)ccc3c2)c[nH]1)C1CCOCC1 [compound 73],> 9.00,
COC(=O)N[C@H](C(=O)N1CCC[C@H]1c1ncc(-c2ccc(-c3nc4ccc(-c5cnc([C@@H]6CCCN6C(=O)[C@H](NC(=O)OC)c6ccccc6)[nH]5)cc4o3)cc2)[nH]1)C(C)C [compound 249],> 9.00,
COC(=O)N[C@H](C(=O)N1CCC[C@H]1c1ncc(-c2ccc3nc(-c4ccc(-c5cnc([C@@H]6CCCN6C(=O)[C@H](NC(=O)OC)c6ccccc6)[nH]5)c(F)c4)ccc3c2)[nH]1)C(C)C [compound 453],,"pEC50 (Huh-7, HCV 1b replicon): > 9.00"
COC(=O)N[C@H](C(=O)N1CCC[C@H]1c1ncc(-c2ccc(-c3ccc4cc(-c5c[nH]c([C@@H]6CCCN6C(=O)[C@H](NC(=O)OC)c6ccccc6)n5)ccc4c3)nc2)[nH]1)C(C)C [compound 48],> 9.00,
COC(=O)N[C@H](C(=O)N1CCN(C(=O)OC)C[C@H]1c1ncc(-c2ccc(-c3ccc4cc(-c5cnc([C@@H]6CCCN6C(=O)[C@H](NC(=O)OC)c6ccccc6)[nH]5)ccc4n3)cc2)[nH]1)C(C)C [compound 471],,"pEC50 (Huh-7, HCV 1b replicon): > 9.00"
COC(=O)N[C@H](C(=O)N1CCC[C@H]1c1ncc(-c2ccc(-c3cc4ccc(-c5cnc([C@@H]6CCCN6C(=O)[C@@H](NC(=O)OC)C(C)C)[nH]5)cc4cn3)c(F)c2)[nH]1)C(C)C [compound 150],> 9.00,
COC(=O)N[C@H](C(=O)N1CCC[C@H]1c1ncc(-c2ccc(-c3ccc4cc(-c5c[nH]c([C@@H]6CCCN6C(=O)[C@H](NC(=O)OC)c6ccccc6)n5)cnc4c3)c(F)c2)[nH]1)C(C)C [compound 58],> 9.00,
CC(C)(C)OC(=O)N1CCCC1c1ncc(-c2ccc(-c3nc4cc(-c5cnc([C@@H]6CCCN6C(=O)OCc6ccccc6)[nH]5)ccc4s3)cc2)[nH]1 (stereo partly drawn) [compound 250],6.00 to 8.00,
COC(=O)N[C@H](C(=O)N1CCC[C@H]1c1nc(-c2cnc3cc(-c4ccc(-c5cnc([C@@H]6CCCN6C(=O)[C@@H](NC(=O)OC)C(C)C)[nH]5)cc4)ccc3c2)c[nH]1)C(C)C [compound 19],> 9.00,
COC(=O)N[C@H](C(=O)N1CCC[C@H]1c1ncc(-c2ccc3nc(-c4ccc(-c5cnc([C@@H]6CN(C(=O)OC)CCN6C(=O)[C@@H](NC(=O)OC)C(C)C)[nH]5)cc4)ccc3c2)[nH]1)C(C)C [compound 469],,"pEC50 (Huh-7, HCV 1b replicon): > 9.00"
COC(=O)N[C@H](C(=O)N1CCC[C@H]1c1ncc(-c2cccc3c(-c4ccc5nc([C@@H]6CCCN6C(=O)[C@@H](NC(=O)OC)C(C)C)[nH]c5c4)cccc23)[nH]1)C(C)C [compound 207],> 9.00,
COC(=O)N[C@@H](C(=O)N1CCC[C@H]1CNC(=O)c1cnc2cc(-c3ccc(-c4cnc([C@@H]5CCCN5C(=O)[C@H](NC(=O)OC)c5ccccc5)[nH]4)cc3)ccc2c1)c1ccccc1 [compound 553],,"pEC50 (Huh-7, HCV 1b replicon): > 9.00"
COC(=O)N[C@H](C(=O)N[C@@H](C)c1ncc(-c2ccc3cc(-c4ccc(-c5cnc([C@@H]6CCCN6C(=O)[C@H](NC(=O)OC)c6ccccc6)[nH]5)cc4)ccc3c2)[nH]1)[C@@H](C)OC [compound 329],,pEC50 [2]: > 9.00
COC(=O)N[C@H](C(=O)N1CCC[C@H]1c1ncc(-c2ccc(-c3ccc4cc(-c5c[nH]c([C@@H]6CCCN6C(=O)[C@@H](NC(=O)OC)C6CCOCC6)n5)ccc4c3)cc2)[nH]1)C(C)C [compound 47],> 9.00,
COC(=O)N[C@H](C(=O)N1CCOC[C@H]1c1ncc(-c2ccc3cc(-c4ccc5nc([C@@H]6CCCN6C(=O)[C@@H](NC(=O)OC)C6CCOCC6)[nH]c5c4)ccc3c2)[nH]1)C(C)C [compound 221],> 9.00,
COC(=O)N[C@H](C(=O)N1CCC[C@H]1c1ncc(-c2ccc(-c3cc4ccc(-c5cnc([C@@H]6CCCN6C(=O)[C@H](NC(=O)OC)c6ccccc6)[nH]5)cc4cn3)cc2)[nH]1)[C@@H](C)OC [compound 483],,"pEC50 (Huh-7, HCV 1b replicon): > 9.00"
COC(=O)N[C@H](C(=O)N1CCC[C@H]1c1nc(-c2ccc3cc(-c4ccc(-c5cnc([C@@H]6CCCN6C(=O)[C@@H](NC(=O)OC)C(C)C)[nH]5)cc4F)ccc3c2)c[nH]1)C(C)C [compound 66],> 9.00,
CC[C@@H](C)[C@H](NC(=O)OC)C(=O)N1CCC[C@H]1c1ncc(-c2ccc3cc(-c4ccc5nc([C@@H]6COCCN6C(=O)[C@@H](NC(=O)OC)[C@H](C)CC)[nH]c5c4)ccc3c2)[nH]1 [compound 352],,pEC50 [2]: > 9.00
COC(=O)N[C@H](C(=O)N1CCC[C@H]1c1ncc(-c2ccc3cc(-c4cnc5nc([C@@H]6CCCN6C(=O)[C@@H](NC(=O)OC)C6CC6)[nH]c5c4)ccc3c2)[nH]1)C1CC1 [compound 406],,pEC50 [2]: > 9.00
COC(=O)N[C@H](C(=O)N1CCC[C@H]1c1nc2ccc(-c3cccc4c(-c5cnc([C@@H]6CCCN6C(=O)[C@H](NC(=O)OC)c6ccccc6)[nH]5)cccc34)cc2[nH]1)C(C)C [compound 208],> 9.00,
COC(=O)N[C@H](C(=O)N1CCC[C@H]1c1ncc(-c2ccc(-c3nc4ccc(-c5cnc([C@@H]6CCCN6C(=O)[C@H](NC(=O)OC)c6ccccc6)[nH]5)cc4s3)cc2)[nH]1)C(C)C [compound 241],> 9.00,
COC(=O)N[C@H](C(=O)N1CCC[C@H]1c1ncc(-c2ccc(-c3ccc4cc(-c5c[nH]c([C@@H]6CCCN6C(=O)[C@H](NC(=O)OC6CCOCC6)c6ccccc6)n5)ccc4n3)cc2)[nH]1)C1CCOCC1 [compound 92],> 9.00,
COC(=O)N[C@@H](C(=O)N1CCC[C@H]1c1ncc(-c2ccc(-c3nc4ccc(-c5cnc([C@@H]6CCCN6C(=O)[C@H](NC(=O)OC)c6ccccc6)[nH]5)cc4o3)cc2)[nH]1)c1ccccc1 [compound 235],> 9.00,
COC(=O)N[C@H](C(=O)N1CC[C@H](O)[C@H]1c1ncc(-c2ccc3cc(-c4ccc(-c5cnc([C@@H]6CCCN6C(=O)[C@@H](NC(=O)OC)C(C)C)[nH]5)cc4)ccc3c2)[nH]1)C(C)C [compound 306],,pEC50 [2]: > 9.00
COC(=O)N[C@H](C(=O)N1CCC[C@H]1CNC(=O)c1ccc(-c2ccc3cc(-c4cnc([C@@H]5CCCN5C(=O)[C@@H](NC(=O)OC)[C@@H](C)OC)[nH]4)ccc3c2)cc1)[C@@H](C)OC [compound 572],,"pEC50 (Huh-7, HCV 1b replicon): > 9.00"
